Source: patent US20100159030A1, “METHODS FOR DETECTING AND MODULATING THE SENSITIVITY OF TUMOR CELLS TO ANTI-MITOTIC AGENTS AND FOR MODULATING TURMORGENICITY” (NewSouth Innovations Pty Limited, priority 2007, published 2010)

How the values were obtained:
H460 cells [1] = experiment: Soft agar colony assay (anchorage-independent cell growth); assay type: cell-based, Human; conditions: vs mock or control siRNA/shRNA cells; 27-mers at 5 nM
Description: H460 cells were transfected with βIII-tubulin siRNA or control siRNA for 24 h as described above. Cells from each sample (1,000 cells per dish) were resuspended in 0.33% agar (37° C.) in RPMI containing 20% FCS, and plated onto 0.5% solidified agar/20% FCS/RPMI (37° C., bottom supportive layer) in 35 mm dishes. Triplicate plates were set up for each sample. The plates were placed at 4° C. for 10 min to solidify the top agar and then incubated at 37° C. in 5% CO2 for 12 days. After 12 days of culture, the colonies were counted and photographed using the Zeiss Axiovert S100 inverted microscope, 5× objective and SPOT digital camera (Thornwood, N.Y.).

class III β-tubulin = experiment: Knockdown of class III β-tubulin expression (western blot, RT-PCR); assay type: cell-based, Human; conditions: H460, subculturing time course
Description: The effects of βIII-tubulin siRNA transfection on the gene and protein expression of the isotype, were assessed by RT-PCR and western blotting. For RT-PCR, total RNA was extracted from the transfected cells using the Trizol® reagent (Invitrogen), according to the manufacturer's instructions. RNA samples were DNAse-treated, reverse transcribed for RT-PCR analysis using methodology and specific primers as described in detail previously (Kavallaris et al. (1997) J Clin Invest 100, 1282-1293). B eta-2-micro globulin (β2M) was used as an internal mRNA control. Preparation of protein lysates and Western blot analysis were performed as follows. […] Primary antibodies were detected using horseradish peroxidase-linked secondary antibody (Amersham Pharmacia Biotech, Uppsala, Sweden) and enhanced chemiluminescence (GE Healthcare, Uppsala, Sweden) was used for detection. The blots were scanned using the Typhoon® scanner and quantified using ImageQuant® software version 5.2 (Molecular Dynamics Inc, Sunnyvale, Calif.). […]

NSCLC H460 cells = experiment: Drug-treated clonogenic assay (surviving fraction, ID50) on siRNA/shRNA-transfected cells; assay type: cell-based, Human; conditions: for RS (relative sensitivity): Table 3
Description: Cells were transfected for 24 h and approximately 600 cells (for Calu-6) or 150 cells (for H460) were seeded into each well of a 6-well plate and allowed to attach for 4-6 h. The cell lines used in this study were not subject to prior drug selection, and are likely to represent intrinsic drug resistance observed in lung carcinoma.
Cells were then treated with increasing concentrations of various anti-mitotic drugs. Following a 3-day incubation at 37° C., the drug-containing medium was removed and replaced with fresh complete medium. Medium was changed at 3-4 day intervals for 7 to 10 days until visible colonies formed. […] Surviving colonies were simultaneously fixed and stained with 0.5% crystal violet in methanol, rinsed with water to remove excess stain and air-dried overnight.
The colonies in each well were manually counted, and the results were presented as surviving fraction according to the formula: surviving fraction was calculated as follows: colony number/(number of cells seeded×plating efficiency), where plating efficiency is equivalent to the colony number divided by the number of cells seeded in the drug-free medium. Dose-response curves were plotted for each drug-cell line combination and inhibitory dose (ID50) values were extrapolated from this curve using GraphPad Prism program (GraphPad Software, version 4, San Diego, Calif.). ID50 was defined as the concentration of the drug required to reduce the number of colonies in drug-treated wells to 50% of that of the relevant untreated control wells. The ID50 values were the means of at least four independent experiments.
To quantitate any change in drug sensitivity, drug treated clonogenic assays were performed. Twenty-four hours after siRNA transfection, cells were harvested and plated into 6-well plates for 6 h, prior to the addition of various drugs as indicated in the figure legends. After 72 h incubation, the drug-containing media was removed and replaced with complete growth media. Medium was changed every 3 days for 7 to 10 days until visible colonies formed. Colonies were simultaneously fixed and stained with 0.5% crystal violet in methanol, and manually counted. Individual stained colonies in each well were counted and the surviving fraction was calculated as follows: colony number/(number of cells seeded×plating efficiency), where plating efficiency equals the colony number divided by the number of cells seeded in drug-free media.

H460 cells [2] = experiment: Apoptosis induction, Annexin V-FITC flow cytometry; assay type: cell-based, Human; conditions: βIII-tubulin siRNA vs control siRNA cells, 48 h; paclitaxel 1, 2, 5 nM; cisplatin 0.4 or 1 μM
Description: Annexin V-FITC staining followed by flow cytometry analysis was performed to address whether the increase in the sub-G1 population following exposure to tubulin-binding agents in the βIII-tubulin siRNA treated cells was related to an increase in apoptosis induction. Apoptosis induction was determined by transfecting H460 cells with siRNA for 72 h and harvesting (adherent and suspension) cells 48 h after drug treatment, as previously described in Pasquier et al., Mol Cancer Ther 2004; 3:1301-10. Briefly, 1×10^5 cells were incubated with Annexin V-FITC and propidium iodide for 15 min in the dark (Becton-Dickinson), immediately followed by flow cytometry using a FACSCalibur (Becton-Dickinson). Cytogram analysis was performed using CellQuest® software.

[3] = system: H460 cells stably expressing control or class III β-tubulin shRNA in subcutaneous tumors; experiment: Nude mouse xenograft, cisplatin (CDDP) treatment of tumors from H460 shRNA clones; assay type: in vivo, BALB/c athymic nude mice; conditions: 3 doses CDDP 3.33 mg/kg over 3 days
Description: FIG. 22 is a column chart illustrating the mean number of days for tumor to reach 1000 mm^3 post-treatment with cisplatin (CDDP) or phosphate buffered saline control (PBS) in a nude mouse xenograft animal model. Graphs illustrate results for control shRNA clones 1 and 2 with and without CDDP treatment and βIII-tubulin shRNA clones 4 and 59 with and without CDDP treatment. Once tumors reached approx 300 mm3 mice were treated with 3 doses of CDDP 3.33 mg/kg over 3 days or its vehicle control (PBS). Tumors were then measured twice weekly and mice were sacrificed once tumors reached 1000 mm^3 (n=5 mice per treatment group). Mean number of days were: Control clone 1 (PBS) 15.6 days±4.95; Control clone 1 (CDDP) 13 days±4.21; Control clone 2 (PBS) 7.2 days±1.5; Control clone 2 (CDDP) 10.8 days±3.54; class III 3-tubulin shRNA clone 4 (PBS) 15.6 days±3.12; class III β-tubulin shRNA clone 4 (CDDP) 35 days±3.03; class III β-tubulin shRNA clone 59 (PBS) 15.6 days±2.11; class III β-tubulin shRNA clone 59 (CDDP) 29.4 days±3.93.
FIG. 24A is a plot of tumor volume over time in a nude mouse xenograft animal model following treatment with cisplatin (CDDP) or phosphate buffered saline control (PBS). Tumor size was plotted in mm^3 for control clone 2 with or without CDDP post-treatment and class III β-tubulin shRNA clone 4 with and without CDDP post-treatment. Once tumors reached approx 300 mm^3 mice were treated with 3 doses of CDDP (3.33 mg/kg) over 3 days or its vehicle control (PBS). Tumors were then measured twice weekly and mice sacrificed once tumors reached 1000 mm^3 FIG. 24B illustrates Kaplin Meier survival curves for tumors of two different clones with or without class III β-tubulin silencing and following CDDP or PBS vehicle treatment in vivo. Clone 2 was a control clone and clone 4 was class III β-tubulin silenced with shRNA. FIG. 24C is a plot of tumor size over time in a nude mouse xenograft animal model following treatment with cisplatin (CDDP) or phosphate buffered saline control (PBS). […] Tumors were then measured twice weekly and mice sacrificed once tumors reached 1000 mm^3 FIG. 24D illustrates Kaplin Meier survival curves for control clone 2 with and without CDDP post-treatment and for class III β-tubulin shRNA clone 59 with and without CDDP post-treatment. […]
Female BALB/c athymic nude mice (5-6 week old) were maintained under pathogen-free conditions. […] The animals were monitored twice a week from the second week post-injection for tumor formation and health status. Tumor diameter was measured twice per week using a digital caliper throughout the experiment, and tumor volume in mm^3 was calculated using the formula: Volume=(length×width×depth)/2. […]

## 27-mer βIII siRNA Sequence-11: 27-mer siRNA to class III β-tubulin, SEQ ID NO: 13 and 14, position 1352-1376 (chain 1 UCUCACUCCAGCUGCGAGCAGCUUCAC; chain 2 GAAGCUGCUCGCAGCUGGAGUGAGA; listed as RNA, chemistry not given here)
H460 cells [1]
  number of colonies in soft agar: significantly less colonies
Class III β-tubulin
  duration of class III β-tubulin protein knockdown: 6 days

## [NH2][Pt]([NH2])([Cl])[Cl] [CDDP, cisplatin]
NSCLC H460 cells; Ctrl clone 2 compared to ctrl clone 1
  RS (relative sensitivity): (1.06, NS)
NSCLC H460 cells; βIII shRNA clone 4 compared to ctrl clone 1
  RS (relative sensitivity): (2.42, 0.0002***)
NSCLC H460 cells; βIII shRNA clone 59 compared to ctrl clone 1
  RS (relative sensitivity): (1.86, 0.001**)
NSCLC H460 cells; βIII shRNA clone 60 compared to ctrl clone 1
  RS (relative sensitivity): (1.72, 0.0019**)
NSCLC H460 cells; βIII-tubulin siRNA silencing vs controls, H460
  change in drug sensitivity (clonogenic survival): increased sensitivity
H460 cells [2]
  percentage of apoptotic cells: significant increase in the number of apoptotic cells
[3]; Control clone 1
  mean number of days for tumor to reach 1000 mm^3 post-treatment: 13 days
[3]; Control clone 2
  mean number of days for tumor to reach 1000 mm^3 post-treatment: 10.8 days
[3]; class III β-tubulin shRNA clone 4
  mean number of days for tumor to reach 1000 mm^3 post-treatment: 35 days
[3]; class III β-tubulin shRNA clone 59
  mean number of days for tumor to reach 1000 mm^3 post-treatment: 29.4 days

## 27-mer βIII siRNA Sequence-8: 27-mer siRNA to class III β-tubulin, SEQ ID NO: 11 and 12, position 1521-1545 (chain 1 AGACAGAGACAGGAGCAGCUCACACGU; chain 2 GUGUGAGCUGCUCCUGUCUCUGUCT; chemistry not given here)
H460 cells [1]
  number of colonies in soft agar: significantly less colonies
